A short description of series [1]: In-vitro release of 5-FU from poly(CPP:SA) implants. Conditions: 37° C., 120 rpm. It is filed as physicochemical. Here is the method: The drug 5-fluorouracil was analyzed by HPLC using a Regis C-18 reverse phase column. The mobile phase was deionized water at a flow rate of 0.6 ml/min and the injection volume was10 μl. The detector was set to monitor 266 nm. Calibration standards for the method were prepared as follows: A mass of 13 mg of 5-FU was dissolved in deionized water in a 50 ml volumetric flask to make a 2.00 mM stock solution. Sequential dilutions of the stock solution give standard solutions of 1.00, 0.200, 0.0500, 0.0100 and 0.00100 mM, respectively. The standards for the metabolite 5-FUR were similarly prepared at the concentrations of 2.00, 1.00, 0.200, 0.0500, 0.0100 and 0.00100 mM, respectively. The HPLC peak area of 5-FU and 5-FUR varied linearly with concentrations in the standard test range of 0.001-2 mM.
To measure in-vitro drug release of 5-F U from the implants, solid samples were pre-weighed and placed in a sterile 50-ml conical tubes filled with 20 ml of either phosphate buffered saline (PBS) or fetal bovine serum (FBS). The tubes were placed on the Gyromax 929 shaker adjusted to 37° C. and 120 rpm. Periodically, 0.1 ml of the solutions was transferred into a vial and diluted 20 times with deionized water. Aliquots of 0.1 ml of fresh PBS or FBS was added to the conical tubes each time to maintain a constant volume. […]

The nature of the next series: in vivo. Conditions: RF ablated liver; for concentration at 24 h: male, Sprague Dawley, rat, in vivo, 5-FU concentration in liver tissue. From the text:
The medial lobe of each liver was exposed through a small midline incision.
For the ablation procedure, the livers were placed on a wire mesh grounding pad and a saline soaked sponge. Ablation was accomplished using a 200-W radiofrequency generator (model CTRF-A, Radionics, Burlington, Mass.) using a 19-gauge needle electrode (model PE-D(10)(2) Radionics , Burlington, Mass.). Ablation was initiated by inserting the needle electrode into a needle tract made with a 23-gauge needle in the center of the lobe. The electrode was inserted to a depth of approximately 8-mm. The hepatic tissue exposed to the radiofrequency current was raised to a temperature of 90° C. for 3 min. […] After the electrode was removed, a 5-FU rod was placed in the probe tract and a fat pad was sewn over the top.

For a further series, the system named is VX-2 tumor. In words: 5-FU rods plus radio-frequency ablation in VX-2 tumors in the liver of rabbits, tumor volume. The format is in vivo, New Zealand white rabbits. Here is the method:
(§1) Male New Zealand white rabbits (−3 kg) were used and were cared for in accordance with the Case Western Reserve University animal research center regulations. The rabbits were anesthetized using a combination of xylazine (5 mg/kg body weight BW) and ketamine (50 mg/kg BW), acepromazine (2 mg/kg), and atropine (0.2 mg/kg) given by i.m. injection. The abdomen was shaved and cleaned with povidone-iodine solution (Betadine) and 0.5 ml of Marcaine was administered into the skin at the incision site. A small midline incision was made and the medial lobe of the liver was exposed and exteriorized. The capsule of the medial lobe was punctured with a scalpel blade and a small piece of VX-2 tumor (1 mm^3), which was propagated in another rabbit and stored in liquid nitrogen for later use, was inserted into the liver parenchyma. A small piece of fat was sutured over the implant site. The abdominal muscles were closed with suture and the skin was closed with subcutaneous hidden sutures. During the recovery period, all animals received buprenophrine (Buprenex, 0.5 mg/kg, i.m.), soon after surgery and once again 24 hrs later for pain. If the animals were later perceived to be in pain, additional buprenophrine was given as needed. The rabbits also received a subcutaneous injection of 25 ml of 0.9% saline during recovery and 24 hrs later.
Fourteen days after tumor implantation, the rabbits were anesthetized again using the protocol given above. The medial lobe of the liver was exteriorized and examined for tumor growth. The size of the tumor was approximately 0.5-1.0 cm in diameter and extended into the liver parenchyma. Before radio frequency ablation, a grounding pad was placed under the exteriorized medial lobe of the liver. […]
Tumor volumes after 28 days of growth, calculated from the digital photographs as well as the integration of the CT slices though the tumors of each rabbit, are given in the table below: […]

Series [2] in a line: Body weight change after RFA plus 5-FU rods in VX-2 tumor rabbits. It is filed as in vivo, New Zealand white rabbits. Conditions: RFA plus 5-FU subgroup, last 14 days following RFA. Here is the method:
as §1, with “later. […]” for “later.”

In a further series the test system is neoplastic tissue. Conditions: reported; cited from earlier work.
A short description of series [3]: Local drug concentration distribution in normal (unablated) rat liver after implantation of 5-FU rod. Conditions: 24 h, insertion point vs periphery.
[4] abbreviates: ablation + three 5-FU rods at day 14, after 28 days of growth, N = 4.

As for `O=c1[nH]cc(F)c(=O)[nH]1` [5-FU, 5-fluorouracil], the “time to release 75% of the 5-FU from implant” value in series [1] (FBS) worked out at 2 days; in series [1] (PBS), 9 days. For the same compound, the concentration at 24 h is roughly 12000 ng/g in “in vivo” (between 6 and 18 mm away from the ablation center); no more than 41000 ng/g in “in vivo” (within 24 h, immediate vicinity of the ablation site (~6 mm radius)). Besides, the “reduction in tumor size” value in the series on VX-2 tumor (ablation + local sustained release 5-FU vs ablation only) is on record as roughly 50%. The “Tumor Volumes, mean (1 SD), CT Scan” value with VX-2 tumor (setting [4]) was 1.71 (0.56) cm^3. The “Tumor Volumes, mean (1 SD), Digital Photography” value with VX-2 tumor (setting [4]) is on record as 1.24 (0.55) cm^3. Besides, the “increase in body weight” value in series [2] stood at 2%. Besides, the “level in neoplastic tissue sufficient for a clinical effect” value with neoplastic tissue was 0.05 µg/g. Besides, the “spatial distribution in normal (unablated) liver” value in series [3] is on record as “essentially the same throughout the whole liver”.

Turning to `O=c1[nH]c(=O)n([C@H]2C[C@H](O)[C@@H](CO)O2)cc1F` [5-FUR, 5-floxuridine], the “spatial distribution in ablated liver” value in the series “in vivo” (5-FU rod in probe tract, 24 h and 48 h) was “contains less 5-FUR than that further away from the ablation site”.

The record behind these values is patent US20030199449A1, “Combination of ablation and controlled drug delivery for the treatment of cancer” (priority 2002, published 2003).
